The record followed here is ChEMBL document CHEMBL4330173, “TRPV1 Modulators for the Treatment of Pain and Inflammation” (ACS Med Chem Lett, 2019).

The target in assay [1] is T1, Transient receptor potential cation channel subfamily V member 1 (Rattus norvegicus, UniProt O35433). The assay can be described thus: Agonist activity at rat TRPV1 expressed in human SH-SY5Y cells assessed as intracellular calcium accumulation by Fluo-4 NW dye based fluorescence assay. Type of assay: cell-based. On the technique in general: A change in cytosolic calcium serves as a functional read-out for many receptors and channels.
T1 sequence (O35433 whole entry): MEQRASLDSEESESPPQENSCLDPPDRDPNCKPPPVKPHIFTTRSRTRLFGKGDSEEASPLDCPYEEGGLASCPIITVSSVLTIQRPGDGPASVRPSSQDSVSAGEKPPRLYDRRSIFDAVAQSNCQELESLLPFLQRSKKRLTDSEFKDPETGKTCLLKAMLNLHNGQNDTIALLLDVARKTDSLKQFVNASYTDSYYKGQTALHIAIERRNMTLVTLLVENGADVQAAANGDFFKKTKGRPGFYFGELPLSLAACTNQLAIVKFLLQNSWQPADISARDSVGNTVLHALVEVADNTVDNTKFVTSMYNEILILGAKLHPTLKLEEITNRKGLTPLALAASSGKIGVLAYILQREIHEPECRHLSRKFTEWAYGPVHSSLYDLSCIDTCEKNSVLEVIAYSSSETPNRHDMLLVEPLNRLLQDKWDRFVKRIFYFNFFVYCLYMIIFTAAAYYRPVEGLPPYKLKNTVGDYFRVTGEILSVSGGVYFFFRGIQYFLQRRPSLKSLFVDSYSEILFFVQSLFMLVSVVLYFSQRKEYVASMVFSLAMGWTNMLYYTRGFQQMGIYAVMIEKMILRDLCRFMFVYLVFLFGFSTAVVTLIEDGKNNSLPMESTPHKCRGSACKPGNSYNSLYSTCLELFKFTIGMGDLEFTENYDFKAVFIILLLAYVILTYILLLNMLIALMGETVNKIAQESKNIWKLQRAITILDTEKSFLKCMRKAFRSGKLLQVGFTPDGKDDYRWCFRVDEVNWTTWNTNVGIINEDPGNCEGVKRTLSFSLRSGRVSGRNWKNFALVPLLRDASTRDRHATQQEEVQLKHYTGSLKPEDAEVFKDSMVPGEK

Assay [2] concerns the target T1, Transient receptor potential cation channel subfamily V member 1. The assay can be described thus: Antagonist activity at rat TRPV1 expressed in human SH-SY5Y cells assessed as reduction in capsaicin-induced intracellular calcium accumulation preincubated with cells followed by capsaicin addition by Fluo-4 NW dye based fluorescence assay. Type of assay: cell-based.

As usually defined, the EC50 is the concentration at which the effect is half-maximal. With `CC(C)=CCC/C(C)=C/CC/C(C)=C/CC/C=C(\C)CC/C=C(\C)CCC(=O)OCC(=O)NCc1ccc(O)c(O)c1`, in assay [1], the EC50 is 15 nM.
As a reminder, the IC50 is the concentration at which inhibition is half-maximal. As for `COc1cc(CNC(=O)COC(=O)/C=C(\C)CCC=C(C)C)c(I)cc1O`, the concentration for half-maximal inhibition (IC50) in assay [2] is 320 nM.
